{"source": "patent US11903912B2", "about": "“Composition for preventing and treating breast cancer including selenopsammaplin A as active ingredients” (Seoul National University R & DB Foundation, priority 2019, dated 2024)", "key": {"[1]": {"system": "EMT markers in MDA-MB-231 cells", "experiment": "Gene expression of EMT markers, real-time PCR", "assay_type": "cell-based, human", "conditions": "MDA-MB-231, real-time PCR", "description": "To confirm the EMT-related gene expression levels of the human breast cancer cell line MDA-MB-231, an experiment was performed as follows. To examine the EMT marker expression levels of the human breast cancer cell line MDA-MB-231, breast cancer cells were spread at a concentration of 1×10^6 cells/well on an RPMI medium containing 10% FBS in a 100 mm culture dish, cultured at 37° C. for 24 hours under a 5% CO2 condition, and then washed twice with phosphate-buffered saline (PBS). Attached cells were washed twice with PBS, the TRI reagent (TRIzol (#15596-026, Invitrogen, Grand Island, N.Y.)) was used to disrupt the cells, and then CHCl3 was added thereto to extract RNA, followed by precipitation using isopropyl alcohol. The RNA precipitate was washed with 70% ethanol, dried in air, and then […] using nuclease-free water (AM9937, Ambion, Austin, Tex.), followed by heating at 55° C. for 10 minutes and heat treatment at 70° C. for 5 minutes, so that RNA was present in a single strand state. Total RNA was quantified using NanoDrop (ND-1000, Dae Myung Science, Seoul, Korea) and diluted to 1 μg/μL, and then cDNA was produced using Avian Myeloblastosis Virus (AMV) Reverse Transcriptase (M5108, Promega, Madison, Wis.) and an oligo(dT)15 primer (C110B, Promega, Madison, Wis.). A target gene was amplified in a MiniOpticon™ Real-time PCR Detection system (CFB-3120, Bio-Rad, Hercules, Calif.) using iQTM SYBR Green Supermix (#170-8880, Bio-Rad, Hercules, Calif.) and target gene-specific primers. Real-time PCR conditions were as follows: a PCR cycle of denaturation at 95° C. for 20 seconds; denaturation at 95° C. for 20 seconds; annealing at 56° C. for 20 seconds; and elongation at 72° C. for 30 seconds, and the PCR cycle was repeated 40 times, followed by the final process at 95° C. for 1 minute and at 55° C. for 1 minute. Ct values were determined by the method according to Livak K J et al ((1996) Method 25:402-408) using MJ Opticon Monitor software (Opticon Monitor 3.1.32, Bio-Rad, Hercules, Calif.), and calibrated with the Ct value of β-actin of the sample, and the mRNA expression of EMT markers in the breast cancer cell line is illustrated in FIGS. 7A to 7D."}, "[2]": {"system": "MDA-MB231 human breast cancer cells", "experiment": "SRB cytotoxicity test, MDA-MB231", "assay_type": "cell-based", "conditions": "SRB assay, cultured 3 days", "description": "(§1) A cytotoxicity test was performed using synthesized selenopsammaplin A and derivatives thereof (Lee S K et al […] Chem Biol Interact 115:215-28).\n(§2) The cytotoxicity test was performed on a total of five representative cancer cell lines. The cytotoxicity of each compound was measured using an SRB assay method (human lung cancer cells, A549; human colon cancer cells, HCT116; human breast cancer cells, MDA-MB231; human liver cancer cells, SK-HEP-1; human gastric cancer cells, SNU638).\n(§3) Each cell line was sub-cultured once or twice using Roswell Park Memorial Institute (RPMI) medium 1640 (RPMI 1640) or Dulbecco's Modified Eagle's Medium (DMEM) containing 10% fetal bovine serum (FBS) inactivated by heat, 100 units/mL of penicillin, 100 μg/mL of streptomycin, and 250 ng/mL of amphotericin B at 37° C. for 1 week under a 5% CO2 condition. All cells were […] in liquid nitrogen, and then passaged three or more times to be used in the experiment. The effects of compounds on cell growth were measured using a sulforhodamine B (SRB) method (Lee et al (1998) Chemico-Biol Interact 115:215-228).\n(§4) Specifically, each human cancer cell line used in the present invention was sub-cultured in an RPMI medium containing 10% FBS, 1% PSF, and the like, and 10 μl of a sample dissolved in 10% DMSO and 190 μl (4-5×10^4 cells/ml) of the cell suspension were added to each well of a 96-well plate and cultured for 3 days. 190 μl of the cell suspension was added to at least 16 wells and cultured for 30 minutes, and used as a zero-day control. The cultured cells were fixed with 10% trichloroacetic acid (TCA) and then stained with an SRB solution, and the staining solution was dissolved with 10 mM Tris-base, and then absorbance at 515 nm was measured. Using the case of culturing in 10% DMSO as a control, cell viability according to each test material treatment was measured using Equation 1 below. Etoposide was used as a positive control. % Viability=(OD(sample)−OD(0-day))/(OD(10% DMSO)−OD(0-day))×100 [Equation 1]\n(§5) Assuming that a control not-treated with the sample was set at 100%, the values of sample-treated groups were expressed as percentage with respect to the control, and each test material treatment results were obtained as the mean±SEM of two or three tests. The IC50 value is the concentration of the test material for a 50% survival rate."}, "[3]": {"system": "SNU638 human gastric cancer cells", "experiment": "SRB cytotoxicity test, SNU638", "assay_type": "cell-based", "conditions": "SRB assay, cultured 3 days", "description": "as §1, §2, §3, §4, §5"}}, "data": [{"smiles": "O=C(NCC[Se][Se]CCNC(=O)/C(Cc1ccccc1)=N/O)/C(Cc1ccccc1)=N/O", "note": "[Compound 2, (2E,2′E)-N,N′-(diselenediylbis(ethane-2,1-diyl))bis(2-(hydroxyimino)-3-phenylpropanamide)]", "values": [{"measurement": "mRNA expression of E-cadherin (CDH1)", "setting": "[1]", "value": "increased"}, {"measurement": "mRNA expression of N-cadherin (CDH2)", "setting": "[1]", "value": "suppressed"}, {"measurement": "mRNA expression of ZEB1", "setting": "[1]", "value": "suppressed"}, {"measurement": "mRNA expression of vimentin (VIM)", "setting": "[1]", "value": "suppressed"}, {"measurement": "IC50", "setting": "[2]", "value": 60, "unit": "nM"}, {"measurement": "IC50", "setting": "[3]", "value": 50, "unit": "nM"}]}]}
